Measurements as given in article PMC4124913 (Bioorganic & medicinal chemistry, 2013).

Legend:
Bcr-Abl = Bcr-Abl (Homo sapiens, UniProt P00519); test: Bcr-Abl kinase assay; conditions: for ΔΔGbind (exptl): RT ln [IC50(cmpd)/IC50(11a)], 298 K
[1] = tested on: K562 cells expressing Abl; test: In vitro radiotracer accumulation, washout and blocking in K562 cells; format: cell-based, human; conditions: cell cultures, excess cold STI-571

Bcr-Abl, sequence (P00519 whole entry): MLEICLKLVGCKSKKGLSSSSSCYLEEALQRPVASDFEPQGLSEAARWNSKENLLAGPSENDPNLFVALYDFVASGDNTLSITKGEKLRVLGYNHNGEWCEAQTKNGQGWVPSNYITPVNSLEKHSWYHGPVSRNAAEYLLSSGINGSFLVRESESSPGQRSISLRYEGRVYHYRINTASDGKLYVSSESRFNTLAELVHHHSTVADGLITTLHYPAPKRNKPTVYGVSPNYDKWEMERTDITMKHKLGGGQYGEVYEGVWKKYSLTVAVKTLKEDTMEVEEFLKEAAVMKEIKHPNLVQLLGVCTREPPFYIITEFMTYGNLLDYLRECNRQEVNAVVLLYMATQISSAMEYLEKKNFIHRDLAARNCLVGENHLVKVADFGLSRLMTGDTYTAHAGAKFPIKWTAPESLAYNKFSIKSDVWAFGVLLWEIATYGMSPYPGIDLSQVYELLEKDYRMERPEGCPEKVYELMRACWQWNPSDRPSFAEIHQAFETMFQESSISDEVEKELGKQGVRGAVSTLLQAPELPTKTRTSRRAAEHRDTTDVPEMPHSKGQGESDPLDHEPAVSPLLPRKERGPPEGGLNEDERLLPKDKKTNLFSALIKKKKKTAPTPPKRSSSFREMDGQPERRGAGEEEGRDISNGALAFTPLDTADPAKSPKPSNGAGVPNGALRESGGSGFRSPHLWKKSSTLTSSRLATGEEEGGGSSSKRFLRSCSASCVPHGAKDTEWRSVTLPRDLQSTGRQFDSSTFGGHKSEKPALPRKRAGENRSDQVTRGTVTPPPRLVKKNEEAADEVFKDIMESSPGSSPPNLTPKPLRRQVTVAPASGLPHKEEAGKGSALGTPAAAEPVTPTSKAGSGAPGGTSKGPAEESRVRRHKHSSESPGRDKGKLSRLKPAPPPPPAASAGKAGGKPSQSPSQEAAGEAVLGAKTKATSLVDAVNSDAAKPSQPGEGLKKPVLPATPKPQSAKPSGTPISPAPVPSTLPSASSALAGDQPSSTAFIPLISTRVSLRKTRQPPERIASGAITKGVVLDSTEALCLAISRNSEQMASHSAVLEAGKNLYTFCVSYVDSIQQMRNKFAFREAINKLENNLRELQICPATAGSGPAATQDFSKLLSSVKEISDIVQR

Compound | IC50 (Bcr-Abl) [nM] | ΔΔGbind (exptl) (Bcr-Abl) [kcal/mol] | binding on addition of excess STI-571 (blocking) [1]
Cc1ccc(NC(=O)c2ccc(CN3CCN(CCF)CC3)cc2)cc1Nc1nccc(-c2cccnc2)n1 [Compound 11b] | 1300 | 1.47 | 
Cc1ccc(NC(=O)c2ccc(CN3CCN(Cc4ccc(I)cc4)CC3)cc2)cc1Nc1nccc(-c2cccnc2)n1 [Compound 11e] |  | 1.10 | 
Cc1ccc(NC(=O)c2ccc(CN3CCN(CC[18F])CC3)cc2)cc1Nc1nccc(-c2cccnc2)n1 [Compound 11g] |  |  | diminished as excess STI-571 was added
Cc1ccc(NC(=O)c2ccc(CN3CCN(CCO)CC3)cc2)cc1Nc1nccc(-c2cccnc2)n1 [Compound 11c] |  | 2.44 | 
